The values that follow are results of earlier work, collected in US20070292393A1, “USE OF THYMOSIN ALPHA 1 FOR PREPARING A MEDICAMENT FOR THE TREATMENT OF STAGE IV MALIGNANT MELANOMA” (SIGMA-TAU INDUSTRIE FARMACEUTICHE RIUNITE S.P.A., priority 2006, published 2007).

The subject of the series is metastatic melanoma.

Each structure is given as a SMILES string.

As for `CN(C)/N=N/c1[nH]cnc1C(N)=O` [DTIC, Dacarbazine], the “effect of responses on patients' overall survival” value was “no evidence”. For the same compound, the “actual overall responses to DTIC” value (recent publications (J Clin Oncol, ASCO 2004)) is recorded as 5.5-6.8%. Also, the duration of responses entry (responses short-lived) is given as “three to six”.
